Measurements from patent US9198433B2, “Substituted benzene fungicides” (E I DU PONT DE NEMOURS AND COMPANY, priority 2007, dated 2015).
Marks after values point to notes of the source that are not given here.

Tests used:
Type in all cases: in vivo
Alternaria solani = assay: Test H: tomato early blight, preventive spray on tomato seedlings, disease rating
Excerpt: (§1) The test compounds were first dissolved in acetone in an amount equal to 3% of the final volume and then suspended at the desired concentration (in ppm) in acetone and purified water (50/50 mix) containing 250 ppm of the surfactant Trem® 014 (polyhydric alcohol esters). The resulting test suspensions were then used in Tests A-L. Spraying a 200 ppm test suspension to the point of run-off on the test plants was the equivalent of an application rate of 500 g/ha. The test suspension was sprayed to the point of run-off on tomato seedlings. […] A dash (-) indicates no test results. All results are for 200 ppm except where followed by an “*”, which indicates 40 ppm or “**”, which indicates 50 ppm.

[1] = system: Erysiphe graminis f. sp. tritici; assay: Test A: wheat powdery mildew, preventive spray on wheat seedlings, disease rating
Excerpt: (§2) The test compounds were first dissolved in acetone in an amount equal to 3% of the final volume and then suspended at the desired concentration (in ppm) in acetone and purified water (50/50 mix) containing 250 ppm of the surfactant Trem® 014 (polyhydric alcohol esters). The resulting test suspensions were then used in Tests A-L. Spraying a 200 ppm test suspension to the point of run-off on the test plants was the equivalent of an application rate of 500 g/ha. The test suspension was sprayed to the point of run-off on wheat seedlings. […] A dash (-) indicates no test results. All results are for 200 ppm except where followed by an “*”, which indicates 40 ppm or “**”, which indicates 50 ppm.

Septoria nodorum = assay: Test C: wheat glume blotch, preventive spray on wheat seedlings, disease rating
Excerpt: as §2

Septoria tritici = assay: Test D: wheat leaf blotch, preventive spray on wheat seedlings, disease rating
Excerpt: The test compounds were first dissolved in acetone in an amount equal to 3% of the final volume and then suspended at the desired concentration (in ppm) in acetone and purified water (50/50 mix) containing 250 ppm of the surfactant Trem® 014 (polyhydric alcohol esters). The resulting test suspensions were then used in Tests A-L. Spraying a 200 ppm test suspension to the point of run-off on the test plants was the equivalent of an application rate of 500 g/ha. The test suspension was sprayed to the point of run-off on wheat seedlings. The following day the seedlings were inoculated with a spore suspension of Septoria tritici (the causal agent of wheat leaf blotch) and incubated in a saturated atmosphere at 24° C. for 48 h, and then moved to a growth chamber at 20° C. for 19 days, after which time disease ratings were made. […] A dash (-) indicates no test results. All results are for 200 ppm except where followed by an “*”, which indicates 40 ppm or “**”, which indicates 50 ppm.

Botrytis cinerea = assay: Test F: tomato Botrytis, preventive spray on tomato seedlings, disease rating
Excerpt: as §1

[2] = system: Puccinia recondita f. sp. tritici; assay: Test B: wheat leaf rust, preventive spray on wheat seedlings, disease rating
Excerpt: as §2

| SMILES | Percentage Disease Control, Test H (Alternaria solani; 40 ppm (*)) | Percentage Disease Control, Test A ([1]; 40 ppm (*)) | Percentage Disease Control, Test C (Septoria nodorum; 40 ppm (*)) | Percentage Disease Control, Test D (Septoria tritici; 40 ppm (*)) | Percentage Disease Control, Test F (Botrytis cinerea; 40 ppm (*)) | Percentage Disease Control, Test B ([2]; 40 ppm (*)) | Percentage Disease Control, Test H (Alternaria solani; 200 ppm) [%] | Percentage Disease Control, Test C (Septoria nodorum; 200 ppm) [%] | Percentage Disease Control, Test F (Botrytis cinerea; 200 ppm) [%] | Percentage Disease Control, Test A ([1]; 200 ppm) [%] | Percentage Disease Control, Test D (Septoria tritici; 200 ppm) [%] | Percentage Disease Control, Test B ([2]; 200 ppm) [%] |
| --- | --- | --- | --- | --- | --- | --- | --- | --- | --- | --- | --- | --- |
| COC(=O)NCc1cc(-c2ccn(CCC(=O)c3ccc(Cl)cc3)n2)ccc1Cl [Cmpd 56] | 92* % | 89* % | 97* % | 90* % | 0* % | 97* % | – | – | – | – | – | – |
| COC(=O)NCc1cc(-c2ccn(Cc3ccccc3)n2)ccc1Cl [Cmpd 57] | 96* % | 97* % | 87* % | 100* % | 0* % | 100* % | – | – | – | – | – | – |
| COC(=O)NCc1cc(-c2ccn(CCc3ccccc3)n2)ccc1Cl [Cmpd 58] | 89* % | 98* % | 100* % | 99* % | 0* % | 100* % | – | – | – | – | – | – |
| COC(=O)NCc1cc(-c2ccn(CCOc3ccccc3)n2)ccc1Cl [Cmpd 59] | 87* % | 98* % | 99* % | 97* % | 0* % | 100* % | – | – | – | – | – | – |
| COC(=O)NCc1cc(-c2ccn(Cc3cccc(Cl)c3)n2)ccc1Cl [Cmpd 60] | 24* % | 98* % | 99* % | 99* % | 0* % | 99* % | – | – | – | – | – | – |
| COC(=O)NCc1cc(-c2ccn(Cc3ccccc3C(F)(F)F)n2)ccc1Cl [Cmpd 62] | 0* % | 99* % | 100* % | 100* % | 0* % | 99* % | – | – | – | – | – | – |
| COC(=O)NCc1cc(-c2ccn(Cc3ccc(C(F)(F)F)cc3)n2)ccc1Cl [Cmpd 63] | 98* % | 97* % | 99* % | 100* % | 0* % | 100* % | – | – | – | – | – | – |
| COC(=O)NNc1cc(-c2ccn(-c3cccc(C(F)(F)F)c3)n2)ccc1Cl [Cmpd 64] | – | 99* % | – | 93* % | – | 100* % | 62 | 99 | 16 | – | – | – |
| COC(=O)NCc1cc(-c2ccn(Cc3cccc(OC(F)(F)F)c3)n2)ccc1Cl [Cmpd 65] | 8* % | 99* % | 99* % | 100* % | 0* % | 99* % | – | – | – | – | – | – |
| COC(=O)NCc1cc(-c2ccn(Cc3ccc(OC(F)(F)F)cc3)n2)ccc1Cl [Cmpd 66] | 96* % | 99* % | 100* % | 100* % | 0* % | 100* % | – | – | – | – | – | – |
| COC(=O)NCc1cc(-c2ccn(Cc3ccc(Cl)cc3)n2)ccc1Cl [Cmpd 67] | 96* % | 96* % | 99* % | 100* % | 0* % | 99* % | – | – | – | – | – | – |
| COC(=O)NCc1cc(-c2ccn(-c3cccc(OC(F)(F)F)c3)n2)ccc1Cl [Cmpd 68] | 86* % | 97* % | 99* % | 100* % | – | 100* % | – | – | 0 | – | – | – |
| COC(=O)NCc1cc(-c2ccn(-c3cccc(C(F)(F)F)n3)n2)ccc1Cl [Cmpd 69] | – | 97* % | 98* % | 98* % | – | 92* % | 32 | – | 0 | – | – | – |
| COC(=O)NCc1cc(-c2ccn(Cc3ccc(C)cc3)n2)ccc1Cl [Cmpd 72] | 94* % | 99* % | 100* % | 100* % | 97* % | 99* % | – | – | – | – | – | – |
| COC(=O)NCc1cc(-c2ccn(Cc3cccc([N+](=O)[O-])c3)n2)ccc1Cl [Cmpd 73] | 14* % | 74* % | 96* % | 98* % | 95* % | 98* % | – | – | – | – | – | – |
| COC(=O)NCc1cc(-c2ccn(-c3ccc(Cl)cc3)n2)ccc1Cl [Cmpd 74] | 99* % | 100* % | 100* % | 100* % | 51* % | 100* % | – | – | – | – | – | – |
| COC(=O)NCc1cc(-c2ccn(Cc3cccc(C#N)c3)n2)ccc1Cl [Cmpd 75] | 61* % | 72* % | 40* % | 91* % | 20* % | 93* % | – | – | – | – | – | – |
| COC(=O)NCc1cc(-c2ccn(Cc3ccccc3OC(F)(F)F)n2)ccc1Cl [Cmpd 76] | 0* % | 99* % | 99* % | 100* % | 0* % | 100* % | – | – | – | – | – | – |
| COC(=O)NCc1cc(-c2ccn(-c3cc(C(F)(F)F)cc(C(F)(F)F)c3)n2)ccc1Cl [Cmpd 78] | 0* % | 100* % | 0* % | 90* % | 33* % | 85* % | – | – | – | – | – | – |
| COC(=O)NCc1cc(-c2ccn(-c3cccc(Cl)c3)n2)ccc1Cl [Cmpd 80] | 29* % | 98* % | 100* % | 100* % | 60* % | 98* % | – | – | – | – | – | – |
| COC(=O)NCc1cc(-c2ccn(-c3cccc(C)c3)n2)ccc1Cl [Cmpd 81] | 97* % | 85* % | 100* % | 99* % | 81* % | 99* % | – | – | – | – | – | – |
| COC(=O)C(=O)c1cc(-c2ccn(-c3cccc(C(F)(F)F)c3)n2)ccc1C [Cmpd 83] | – | – | – | – | – | – | 0 | 0 | 0 | 19 | 89 | 0 |
| CON=C(C(=O)OC)c1cc(-c2ccn(-c3cccc(C(F)(F)F)c3)n2)ccc1C [Cmpd 84] | – | 98* % | – | 99* % | – | – | 54 | 92 | 67 | – | – | 80 |
| CNC(=O)C(=NOC)c1cc(-c2ccn(-c3cccc(C(F)(F)F)c3)n2)ccc1C [Cmpd 85] | – | 100* % | 99* % | 99* % | – | 97* % | 86 | – | 0 | – | – | – |
| COC(=O)NCc1cc(-c2ccn(-c3cc(C(F)(F)F)ccn3)n2)ccc1Cl [Cmpd 86] | 9* % | 99* % | 100* % | 98* % | 0* % | 100* % | – | – | – | – | – | – |
